In PubChem BioAssay AID248 (DTP/NCI, 2004):
Values joined by “and” are separate entries in the source; they are usually repeats but may differ in a detail not shown here. Equal values may be shown once. Inconclusive results and toxic doses are left out.

System: L1210 leukemia ip in BDF1 mice, survival T/C
Assay: NCI In Vivo Anticancer Drug Screen. Data for tumor model L1210 Leukemia (intraperitoneal) in B6D2F1 (BDF1) mice
Conditions: endpoint: mean survival time, higher = longer survival
In short: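 Tumor was transplanted into mice, which were then dosed with test compound or vehicle alone. Survival was recorded for each group, and the treated figure was expressed relative to the control figure.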

[1] = dose: 100.0 mg/kg/injection, schedule: Q04DX003 (ip), vehicle: saline
[2] = dose: 200.0 mg/kg/injection, schedule: Q04DX003 (ip), vehicle: saline
[3] = dose: 50.0 mg/kg/injection, schedule: Q01DX001 (ip), vehicle: saline
[4] = dose: 100.0 mg/kg/injection, schedule: Q01DX001 (ip), vehicle: saline
[5] = dose: 200.0 mg/kg/injection, schedule: Q01DX001 (ip), vehicle: saline
[6] = dose: 50.0 mg/kg/injection, schedule: Q01DX009 (ip), vehicle: saline
[7] = dose: 100.0 mg/kg/injection, schedule: Q01DX009 (ip), vehicle: saline
[8] = dose: 200.0 mg/kg/injection, schedule: Q01DX009 (ip), vehicle: saline
[9] = dose: 100.0 mg/kg/injection, schedule: Q04DX003 (ip), vehicle: Klucel (hydroxypropylcellulose) (HPC)
[10] = dose: 100.0 mg/kg/injection, schedule: Q04DX003 (ip), vehicle: saline with Tween-80
[11] = dose: 200.0 mg/kg/injection, schedule: Q04DX003 (ip), vehicle: Klucel (hydroxypropylcellulose) (HPC)
[12] = dose: 200.0 mg/kg/injection, schedule: Q04DX003 (ip), vehicle: saline with Tween-80

With `O=C(O)CC(Br)C(=O)O` (stereo not drawn) the T/C [1] was 98 % of control and the T/C [2] was 102 % of control.
For `Nc1ncnc2c1ncn2C1SC(CO)C(O)C1O` (stereo not drawn), the T/C [3] was 93 % of control and 103 % of control, the T/C [4] was 102 % of control and 105 % of control and the T/C (dose: 100.0 mg/kg/injection, schedule: Q01DX005 (ip), vehicle: saline) was 108 % of control and 95 % of control. For the same compound, the T/C [5] was 104 % of control and 100 % of control and the T/C (dose: 200.0 mg/kg/injection, schedule: Q01DX005 (ip), vehicle: saline) was 109 % of control and 95 % of control.
`NC(Cc1ccccc1)C(=O)NCCCCCCCCCCNC(=O)C(N)Cc1ccccc1` (stereo not drawn) was tested, and the T/C [3] was 98 % of control, the T/C [4] was 104 % of control and the T/C [5] was 103 % of control.
With `NNC(=O)c1ccc[nH]1` the T/C (dose: 75.0 mg/kg/injection, schedule: Q01DX001 (ip), vehicle: saline) was 102 % of control.
With `FC(F)(F)c1ccc2nc(CI)c(CI)nc2c1` the T/C (dose: 6.0 mg/kg/injection, schedule: Q01DX009 (ip), vehicle: other) was 98 % of control, the T/C (dose: 12.0 mg/kg/injection, schedule: Q01DX009 (ip), vehicle: other) was 91 % of control and the T/C (dose: 12.5 mg/kg/injection, schedule: Q01DX009 (ip), vehicle: saline with Tween-80) was 88 % of control. For the same compound, the T/C (dose: 25.0 mg/kg/injection, schedule: Q01DX009 (ip), vehicle: other) was 95 % of control, the T/C (dose: 25.0 mg/kg/injection, schedule: Q04DX003 (ip), vehicle: other) was 94 % of control and the T/C (dose: 50.0 mg/kg/injection, schedule: Q04DX003 (ip), vehicle: other) was 87 % of control. The T/C (dose: 100.0 mg/kg/injection, schedule: Q04DX003 (ip), vehicle: other) was 97 % of control.
In the case of `COc1nc2ccccc2c2ccccc12`, the T/C (dose: 100.0 mg/kg/injection, schedule: Q01DX001 (ip), vehicle: other) is reported as 105 % of control, the T/C (dose: 200.0 mg/kg/injection, schedule: Q01DX001 (ip), vehicle: other) is reported as 102 % of control and the T/C (dose: 400.0 mg/kg/injection, schedule: Q01DX001 (ip), vehicle: other) is reported as 107 % of control.
For `O=C1C=C(c2ccccc2)C(=O)C=C1c1ccccc1`, the T/C (dose: 6.25 mg/kg/injection, schedule: Q01DX009 (ip), vehicle: water) was 94 % of control, the T/C (dose: 12.5 mg/kg/injection, schedule: Q01DX009 (ip), vehicle: water) was 86 % of control and the T/C (dose: 25.0 mg/kg/injection, schedule: Q01DX009 (ip), vehicle: water) was 103 % of control. The T/C (dose: 25.0 mg/kg/injection, schedule: Q04DX003 (ip), vehicle: gum acacia) was 94 % of control, the T/C (dose: 50.0 mg/kg/injection, schedule: Q01DX009 (ip), vehicle: water) was 86 % of control and the T/C (dose: 50.0 mg/kg/injection, schedule: Q04DX003 (ip), vehicle: gum acacia) was 94 % of control. For the same compound, the T/C (dose: 100.0 mg/kg/injection, schedule: Q04DX003 (ip), vehicle: gum acacia) was 105 % of control.
In the case of `CCOc1ccc(/C=N\NC(=O)CCCC(=O)N/N=C/c2ccc(OCC)c(OCC)c2)cc1OCC`, the T/C [3] is reported as 103 % of control, the T/C [4] is reported as 95 % of control and the T/C [5] is reported as 87 % of control.
For `Br[C](Br)(Br)[Hg][c]1ccccc1`, the T/C (dose: 6.0 mg/kg/injection, schedule: Q01DX009 (ip), vehicle: Klucel (hydroxypropylcellulose) (HPC)) was 98 % of control, the T/C (dose: 12.5 mg/kg/injection, schedule: Q01DX009 (ip), vehicle: Klucel (hydroxypropylcellulose) (HPC)) was 93 % of control and the T/C (dose: 12.5 mg/kg/injection, schedule: Q04DX003 (ip), vehicle: Klucel (hydroxypropylcellulose) (HPC)) was 110 % of control. For the same compound, the T/C (dose: 25.0 mg/kg/injection, schedule: Q01DX009 (ip), vehicle: Klucel (hydroxypropylcellulose) (HPC)) was 87 % of control and the T/C (dose: 25.0 mg/kg/injection, schedule: Q04DX003 (ip), vehicle: Klucel (hydroxypropylcellulose) (HPC)) was 95 % of control.
For `CCOC(=O)c1ccc(NS(=O)(=O)c2ccc(NC(C)=O)cc2)cc1`, the T/C (dose: 100.0 mg/kg/injection, schedule: Q04DX002 (ip), vehicle: Klucel (hydroxypropylcellulose) (HPC)) was 88 % of control, the T/C (dose: 200.0 mg/kg/injection, schedule: Q04DX002 (ip), vehicle: Klucel (hydroxypropylcellulose) (HPC)) was 94 % of control and the T/C (dose: 400.0 mg/kg/injection, schedule: Q04DX002 (ip), vehicle: Klucel (hydroxypropylcellulose) (HPC)) was 103 % of control.
In the case of `OCCCC1CCCCC1`, the T/C [6] is reported as 97 % of control, the T/C [7] is reported as 175 % of control and the T/C [8] is reported as 103 % of control.
For `CC(C)(O)C(Cc1ccccc1)c1ccccc1` (stereo not drawn), the T/C (dose: 6.25 mg/kg/injection, schedule: Q04DX002 (ip), vehicle: saline with Tween-80) was 91 % of control, the T/C (dose: 12.5 mg/kg/injection, schedule: Q04DX002 (ip), vehicle: saline with Tween-80) was 98 % of control and the T/C (dose: 25.0 mg/kg/injection, schedule: Q04DX002 (ip), vehicle: saline with Tween-80) was 102 % of control.
In the case of `CCCCCCCCCCS(=O)(=O)CC(=O)O`, the T/C [9] is reported as 100 % of control, the T/C [10] is reported as 100 % of control and the T/C [11] is reported as 90 % of control. The T/C [12] was 98 % of control.
With `CCN(CC)Cc1ccccc1COC(=O)c1cccc(C)c1` the T/C (dose: 50.0 mg/kg/injection, schedule: Q04DX002 (ip), vehicle: saline) was 93 % of control, the T/C (dose: 100.0 mg/kg/injection, schedule: Q04DX002 (ip), vehicle: saline) was 90 % of control and the T/C (dose: 200.0 mg/kg/injection, schedule: Q04DX002 (ip), vehicle: saline) was 93 % of control.
For `C=CCNC(=S)NNC(=O)CCCC(=O)NNC(=S)NCC=C`, the T/C [3] was 90 % of control, the T/C [4] was 93 % of control and the T/C (dose: 400.0 mg/kg/injection, schedule: Q01DX001 (ip), vehicle: saline) was 102 % of control.
`Cc1cc(C(=O)O)c(CN2C(=O)c3ccccc3C2=O)c(=O)n1C` was tested, and the T/C (dose: 100.0 mg/kg/injection, schedule: Q01DX001 (ip), vehicle: saline with Tween-80) was 105 % of control, the T/C (dose: 100.0 mg/kg/injection, schedule: Q04DX003 (ip), vehicle: water) was 102 % of control and the T/C (dose: 200.0 mg/kg/injection, schedule: Q01DX001 (ip), vehicle: saline with Tween-80) was 100 % of control. The T/C (dose: 200.0 mg/kg/injection, schedule: Q04DX003 (ip), vehicle: water) was 100 % of control, the T/C (dose: 400.0 mg/kg/injection, schedule: Q01DX001 (ip), vehicle: saline with Tween-80) was 100 % of control and the T/C (dose: 400.0 mg/kg/injection, schedule: Q04DX003 (ip), vehicle: water) was 104 % of control.
With `OCC(I)C(CO)[n+]1ccccc1` (stereo not drawn) the T/C (dose: 12.5 mg/kg/injection, schedule: Q01DX009 (ip), vehicle: saline) was 104 % of control, the T/C (dose: 12.5 mg/kg/injection, schedule: Q04DX003 (ip), vehicle: saline) was 102 % of control and the T/C (dose: 25.0 mg/kg/injection, schedule: Q01DX009 (ip), vehicle: saline) was 110 % of control. For the same compound, the T/C (dose: 25.0 mg/kg/injection, schedule: Q04DX003 (ip), vehicle: saline) was 100 % of control, the T/C [6] was 101 % of control and the T/C (dose: 50.0 mg/kg/injection, schedule: Q04DX003 (ip), vehicle: saline) was 102 % of control.
In the case of `CC(=O)CC(=O)OCc1ccccc1`, the T/C [7] is reported as 93 % of control, the T/C [8] is reported as 92 % of control and the T/C (dose: 400.0 mg/kg/injection, schedule: Q01DX009 (ip), vehicle: saline) is reported as 95 % of control.
For `C=C1CC(C)(c2ccc(CCCC(=O)OCC)cc2)OC1=O` (stereo not drawn), the T/C (dose: 50.0 mg/kg/injection, schedule: Q01DX009 (ip), vehicle: saline with Tween-80) was 102 % of control, the T/C (dose: 100.0 mg/kg/injection, schedule: Q01DX009 (ip), vehicle: saline with Tween-80) was 102 % of control and the T/C [10] was 103 % of control. The T/C (dose: 200.0 mg/kg/injection, schedule: Q01DX009 (ip), vehicle: saline with Tween-80) was 88 % of control and the T/C [12] was 97 % of control.
In the case of `C=CCC1(CC)C(=O)NC(=O)NC1=O`, the T/C (dose: 50.0 mg/kg/injection, schedule: Q01DX009 (ip), vehicle: saline sonified) is reported as 102 % of control, the T/C (dose: 100.0 mg/kg/injection, schedule: Q01DX009 (ip), vehicle: saline sonified) is reported as 110 % of control and the T/C [9] is reported as 94 % of control. For the same compound, the T/C (dose: 200.0 mg/kg/injection, schedule: Q01DX009 (ip), vehicle: saline sonified) was 108 % of control and the T/C [11] was 94 % of control.
For `O=P(OCCCl)(OCCCl)OCCCl`, the T/C [1] was 102 % of control, the T/C [2] was 102 % of control and the T/C (dose: 400.0 mg/kg/injection, schedule: Q04DX003 (ip), vehicle: saline) was 103 % of control.
In the case of `O=C1C=C2CCN(Cc3ccccc3)CC2CC1` (stereo not drawn), the T/C (dose: 100.0 mg/kg/injection, schedule: Q01DX001 (ip), vehicle: acetone) is reported as 97 % of control, the T/C [1] is reported as 104 % of control and the T/C (dose: 200.0 mg/kg/injection, schedule: Q01DX001 (ip), vehicle: acetone) is reported as 102 % of control. For the same compound, the T/C [2] was 101 % of control and the T/C (dose: 400.0 mg/kg/injection, schedule: Q01DX001 (ip), vehicle: acetone) was 98 % of control.
